Test results reported in ChEMBL document CHEMBL5108001, “Multivalent glucosidase inhibitors based on perylene bisimide and iminosugar conjugates” (Eur J Med Chem, 2022).

Key:
[1] = Toxicity in C57BL/6J mouse assessed as reduction in blood LDL level at 2 mg/kg administered for 7 days; type: organism-based; conditions: in vivo, 168 h, time 7 day
Alpha-mannosidase = target: T1, Alpha-mannosidase (Canavalia ensiformis, UniProt C0HJB3); assay: Inhibition of jack bean alpha-mannosidase
T1 sequence (C0HJB3 whole entry): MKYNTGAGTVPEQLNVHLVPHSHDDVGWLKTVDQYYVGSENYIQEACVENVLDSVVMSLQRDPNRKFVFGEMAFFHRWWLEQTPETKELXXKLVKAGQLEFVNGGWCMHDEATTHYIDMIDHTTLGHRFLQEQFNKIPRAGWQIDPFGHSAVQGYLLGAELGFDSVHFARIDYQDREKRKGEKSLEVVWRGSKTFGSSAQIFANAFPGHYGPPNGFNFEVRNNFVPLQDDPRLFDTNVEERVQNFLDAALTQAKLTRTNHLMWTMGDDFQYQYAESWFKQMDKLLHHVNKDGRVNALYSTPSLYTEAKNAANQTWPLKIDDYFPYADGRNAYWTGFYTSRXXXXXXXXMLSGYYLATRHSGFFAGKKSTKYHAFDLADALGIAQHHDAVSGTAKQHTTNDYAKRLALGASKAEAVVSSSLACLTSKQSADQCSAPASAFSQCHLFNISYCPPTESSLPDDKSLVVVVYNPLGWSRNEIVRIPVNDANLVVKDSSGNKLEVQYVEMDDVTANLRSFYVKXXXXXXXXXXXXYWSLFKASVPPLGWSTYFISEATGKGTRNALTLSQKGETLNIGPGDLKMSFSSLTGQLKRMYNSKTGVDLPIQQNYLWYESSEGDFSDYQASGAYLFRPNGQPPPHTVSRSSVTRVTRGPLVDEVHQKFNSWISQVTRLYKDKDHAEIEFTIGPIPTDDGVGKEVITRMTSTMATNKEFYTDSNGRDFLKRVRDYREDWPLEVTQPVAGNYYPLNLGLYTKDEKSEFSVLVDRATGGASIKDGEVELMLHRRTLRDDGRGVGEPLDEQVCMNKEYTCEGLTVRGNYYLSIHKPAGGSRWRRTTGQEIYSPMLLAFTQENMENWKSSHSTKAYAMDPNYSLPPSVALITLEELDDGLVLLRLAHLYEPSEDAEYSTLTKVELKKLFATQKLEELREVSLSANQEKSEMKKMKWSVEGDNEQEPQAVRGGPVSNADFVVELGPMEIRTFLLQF

[2] = Inhibition of rice alpha-glucosidase by Lineweaver-Burk plot analysis; parameters: species or system Oryza sativa
Mus musculus [3] = assay: Hypoglycemic activity in C57BL/6J mouse assessed as postprandial blood glucose level at 2 mg/kg measured after 30 mins by maltose tolerance test (reference value: 368.49 +/-31.28 mg/dl); type: functional; conditions: 0.5 h
[4] = target: T2, Alpha-mannosidase (Canavalia ensiformis) (UniProt C0HJB3); assay: Potency index, ratio of Miglitol Ki to test compound Ki for inhibition of jack bean alpha-mannosidase measured per DNJ unit
T2 sequence (whole entry): T1 sequence (C0HJB3 whole entry)

[5] = Toxicity in C57BL/6J mouse assessed as change in CK level at 2 mg/kg administered for 7 days; type: organism-based; conditions: in vivo, 168 h, time 7 day
[6] = Renal toxicity in C57BL/6J mouse assessed as change in blood urea level at 2 mg/kg administered for 7 days; type: organism-based; conditions: in vivo, 168 h, time 7 day
[7] = Toxicity in C57BL/6J mouse assessed as change in blood cholesterol level at 2 mg/kg administered for 7 days; type: organism-based; conditions: in vivo, 168 h, time 7 day
[8] = Toxicity in C57BL/6J mouse assessed as lungs pathological morphological changes at 2 mg/kg administered for 7 days by hematoxylin-eosin staining based analysis; type: organism-based; conditions: in vivo, 168 h, time 7 day
[9] = Hepatotoxicity in C57BL/6J mouse assessed as change in serum AST level at 2 mg/kg administered for 7 days; type: toxicity, organism-based; conditions: in vivo, 168 h, time 7 day
[10] = Renal toxicity in C57BL/6J mouse assessed as change in blood uric acid level at 2 mg/kg administered for 7 days; type: organism-based; conditions: in vivo, 168 h, time 7 day
[11] = Toxicity in C57BL/6J mouse assessed as change in blood triglyceride level at 2 mg/kg administered for 7 days; type: organism-based; conditions: in vivo, 168 h, time 7 day
Oryza sativa = assay: Potency index, ratio of Miglitol Ki to test compound Ki for inhibition of rice alpha-glucosidase measured per DNJ unit
[12] = Cytotoxicity against human GES1 cells assessed as cell viability at 125 uM; type: toxicity, cell-based; conditions: read-out: Activity
Mus musculus [13] = assay: Hypoglycemic activity in C57BL/6J mouse assessed as reduction in postprandial blood glucose level at 1 mg/kg measured after 15 mins by maltose tolerance test; type: functional; conditions: 0.25 h
Mus musculus [14] = assay: Hypoglycemic activity in C57BL/6J mouse assessed as reduction in postprandial blood glucose level at 0.5 mg/kg measured after 15 mins by maltose tolerance test; type: functional; conditions: 0.25 h
[15] = Toxicity in C57BL/6J mouse assessed as spleen pathological morphological changes at 2 mg/kg administered for 7 days by hematoxylin-eosin staining based analysis; type: organism-based; conditions: in vivo, 168 h, time 7 day
[16] = Inhibition of Aspergillus niger alpha-glucosidase by Lineweaver-Burk plot analysis
Mus musculus [17] = assay: Hypoglycemic activity in C57BL/6J mouse assessed as postprandial blood glucose level at 1 mg/kg measured after 30 mins by maltose tolerance test (reference value: 368.49 +/-31.28 mg/dl); type: functional; conditions: 0.5 h
Mus musculus [18] = assay: Hypoglycemic activity in C57BL/6J mouse assessed as reduction in postprandial blood glucose level at 1 mg/kg measured after 30 mins by maltose tolerance test; type: functional; conditions: 0.5 h
Mus musculus [19] = assay: Hypoglycemic activity in C57BL/6J mouse assessed as reduction in postprandial blood glucose level at 2 mg/kg measured after 15 mins by maltose tolerance test; type: functional; conditions: 0.25 h
[20] = Toxicity in C57BL/6J mouse assessed as kidneys pathological morphological changes at 2 mg/kg administered for 7 days by hematoxylin-eosin staining based analysis; type: organism-based; conditions: in vivo, 168 h, time 7 day
Mus musculus [21] = assay: Hypoglycemic activity in C57BL/6J mouse assessed as reduction in postprandial blood glucose level at 0.5 mg/kg measured after 30 mins by maltose tolerance test; type: functional; conditions: 0.5 h
[22] = Toxicity in C57BL/6J mouse assessed as change in blood HDL level at 2 mg/kg administered for 7 days; type: organism-based; conditions: in vivo, 168 h, time 7 day
[23] = Inhibition of alpha-glucosidase in Kunming mouse using p-nitrophenyl-alpha-glycopyranoside as substrate by Lineweaver-Burk plot analysis
[24] = Toxicity in C57BL/6J mouse assessed as heart pathological morphological changes at 2 mg/kg administered for 7 days by hematoxylin-eosin staining based analysis; type: organism-based; conditions: in vivo, 168 h, time 7 day
[25] = Toxicity in C57BL/6J mouse assessed as change in GLU level at 2 mg/kg administered for 7 days; type: organism-based; conditions: in vivo, 168 h, time 7 day
Mus musculus [26] = assay: Hypoglycemic activity in C57BL/6J mouse assessed as reduction in postprandial blood glucose level per DNJ nit at 0.5 to 2 mg/kg measured after 15 mins by maltose tolerance test relative to Miglitol; type: functional; conditions: dose 0.5-2 mg/kg, 0.25 h
Mus musculus [27] = assay: Hypoglycemic activity in C57BL/6J mouse assessed as postprandial blood glucose level at 0.5 mg/kg measured after 30 mins by maltose tolerance test (reference value: 368.49 +/-31.28 mg/dl); type: functional
[28] = Toxicity in C57BL/6J mouse assessed as hepatic pathological changes by measuring hepatocytes distributed radially around the central veins at 2 mg/kg administered for 7 days by hematoxylin-eosin staining based analysis; type: organism-based; conditions: in vivo, 168 h, time 7 day
Mus musculus [29] = assay: Hypoglycemic activity in C57BL/6J mouse assessed as reduction in postprandial blood glucose level per DNJ unit at 0.5 to 1 mg/kg measured after 30 mins by maltose tolerance test relative to Miglitol; type: functional; conditions: dose 0.5-1 mg/kg
[30] = Toxicity in C57BL/6J mouse assessed as change in body weight at 2 mg/kg administered for 7 days; type: organism-based; conditions: in vivo, 168 h, time 7 day
[31] = Hepatotoxicity in C57BL/6J mouse assessed as change in serum ALP level at 2 mg/kg administered for 7 days; type: toxicity, organism-based; conditions: in vivo, 168 h, time 7 day
Mus musculus [32] = assay: Hypoglycemic activity in C57BL/6J mouse assessed as reduction in postprandial blood glucose level at 2 mg/kg measured after 30 mins by maltose tolerance test; type: functional; conditions: 0.5 h
[33] = Hepatotoxicity in C57BL/6J mouse assessed as serum AST level at 2 mg/kg administered for 7 days (reference value: 221.38 +/-23.03 U/L); type: toxicity, organism-based; conditions: in vivo, 168 h, time 7 day
[34] = Renal toxicity in C57BL/6J mouse assessed as blood uric acid level at 2 mg/kg administered for 7 days; type: organism-based; conditions: in vivo, 168 h, time 7 day
[35] = Renal toxicity in C57BL/6J mouse assessed as blood urea level at 2 mg/kg administered for 7 days; type: organism-based; conditions: in vivo, 168 h, time 7 day
[36] = Hepatotoxicity in C57BL/6J mouse assessed as serum ALT level at 2 mg/kg administered for 7 days (reference value: 70.49 +/-8.78 U/L); type: toxicity, organism-based; conditions: in vivo, 168 h, time 7 day

O=C1c2cc(Cl)c3c4c(Oc5ccc(OCc6cn(CCCN7C[C@H](O)[C@@H](O)[C@H](O)[C@H]7CO)nn6)cc5)cc5c6c(cc(Oc7ccc(OCc8cn(CCCN9C[C@H](O)[C@@H](O)[C@H](O)[C@H]9CO)nn8)cc7)c(c7c(Oc8ccc(OCc9cn(CCCN%10C[C@H](O)[C@@H](O)[C@H](O)[C@H]%10CO)nn9)cc8)cc(c2c37)C(=O)N1Cc1cn(CCCN2C[C@H](O)[C@@H](O)[C@H](O)[C@H]2CO)nn1)c64)C(=O)N(Cc1cn(CCCN2C[C@H](O)[C@@H](O)[C@H](O)[C@H]2CO)nn1)C5=O
Activity [1]: 0.24 mmol/L
Ki (Alpha-mannosidase): 120 nM
Ki [2]: 10 nM
Activity (Mus musculus [3]): 287.49 mg/dL
Ratio Ki [4]: 175
Activity [5]: Non-Toxic
Activity [6]: Non-Toxic
Activity [7]: Non-Toxic
Activity [8]: Non-Toxic
Activity [9]: Non-Toxic
Activity [10]: Non-Toxic
Activity [11]: Non-Toxic
Ratio Ki (Oryza sativa): 3.6
viability at 125 µM [12]: 92%
inhibition in vivo at 1 mg/kg (Mus musculus [13]): 26.9%
inhibition in vivo at 0.5 mg/kg (Mus musculus [14]): 18%
Activity [15]: Non-Toxic
Ki [16]: 8040 nM
Activity (Mus musculus [17]): 304.2 mg/dL
inhibition in vivo at 1 mg/kg (Mus musculus [18]): 23.8%
inhibition in vivo at 2 mg/kg (Mus musculus [19]): 31.9%
Activity [20]: Non-Toxic
inhibition in vivo at 0.5 mg/kg (Mus musculus [21]): 12.3%
Activity [22]: Non-Toxic
Ki [23]: 310 nM
Activity [24]: Non-Toxic
Activity [25]: Non-Toxic
fold change (FC) (Mus musculus [26]): 1.6
Activity (Mus musculus [27]): 323.49 mg/dL
Activity [28]: Non-Toxic
fold change (FC) (Mus musculus [29]): 1.5
Activity [30]: Non-Toxic
Activity [31]: Non-Toxic

O=C1c2cc(Oc3ccc(OCc4cn(CCCN5C[C@H](O)[C@@H](O)[C@H](O)[C@H]5CO)nn4)cc3)c3c4c(Oc5ccc(OCc6cn(CCCN7C[C@H](O)[C@@H](O)[C@H](O)[C@H]7CO)nn6)cc5)cc5c6c(cc(Oc7ccc(OCc8cn(CCCN9C[C@H](O)[C@@H](O)[C@H](O)[C@H]9CO)nn8)cc7)c(c7c(Oc8ccc(OCc9cn(CCCN%10C[C@H](O)[C@@H](O)[C@H](O)[C@H]%10CO)nn9)cc8)cc(c2c37)C(=O)N1Cc1cn(CCCN2C[C@H](O)[C@@H](O)[C@H](O)[C@H]2CO)nn1)c64)C(=O)N(Cc1cn(CCCN2C[C@H](O)[C@@H](O)[C@H](O)[C@H]2CO)nn1)C5=O
Activity [1]: 0.3 mmol/L
Ki (Alpha-mannosidase): 80 nM
Ki [2]: 20 nM
Activity (Mus musculus [3]): 229.32 mg/dL
Ratio Ki [4]: 219
inhibition in vivo at 2 mg/kg (Mus musculus [32]): 37.8%
Activity [5]: Non-Toxic
Activity [7]: Non-Toxic
Activity [33]: 269.71 U/L
Activity [8]: Non-Toxic
Activity [11]: Non-Toxic
Ratio Ki (Oryza sativa): 1.5
viability at 125 µM [12]: 92%
Activity [34]: 242.06 µmol/L
inhibition in vivo at 1 mg/kg (Mus musculus [13]): 37%
inhibition in vivo at 0.5 mg/kg (Mus musculus [14]): 24.7%
Activity [15]: Non-Toxic
Ki [16]: 18900 nM
Activity (Mus musculus [17]): 243.36 mg/dL
inhibition in vivo at 1 mg/kg (Mus musculus [18]): 34.6%
inhibition in vivo at 2 mg/kg (Mus musculus [19]): 40.4%
Activity [20]: Non-Toxic
inhibition in vivo at 0.5 mg/kg (Mus musculus [21]): 24.4%
Activity [22]: Non-Toxic
Ki [23]: 140 nM
Activity [24]: Non-Toxic
Activity [35]: 8.63 mmol/L
Activity [36]: 59.14 U/L
Activity [25]: Non-Toxic
fold change (FC) (Mus musculus [26]): 2.1
Activity (Mus musculus [27]): 279.6 mg/dL
Activity [28]: Non-Toxic
fold change (FC) (Mus musculus [29]): 2.1
Activity [30]: Non-Toxic

OCCN1C[C@H](O)[C@@H](O)[C@H](O)[C@H]1CO [MIGLITOL]
Ki [2]: 180 nM
Activity (Mus musculus [3]): 233.28 mg/dL
inhibition in vivo at 2 mg/kg (Mus musculus [32]): 41%
inhibition in vivo at 1 mg/kg (Mus musculus [13]): 30%
inhibition in vivo at 0.5 mg/kg (Mus musculus [14]): 23.1%
Ki [16]: 20800 nM
Activity (Mus musculus [17]): 273.6 mg/dL
inhibition in vivo at 1 mg/kg (Mus musculus [18]): 27.3%
inhibition in vivo at 2 mg/kg (Mus musculus [19]): 39.2%
inhibition in vivo at 0.5 mg/kg (Mus musculus [21]): 22%
Activity (Mus musculus [27]): 287.55 mg/dL
